ChEMBL document CHEMBL1129595, “Potent 6-desfluoro-8-methylquinolones as new lead compounds in antibacterial chemotherapy” (J Med Chem, 1996)
Values after ≈ are worked out from the molar mass of the structure shown.

Tests used:
[1] = test system: Enterobacter cloacae; test: In vitro antibacterial activity against Enterobacter cloacae OMNFI 174; type: functional
[2] = test system: Enterococcus faecalis; test: In vitro antibacterial activity against Enterococcus faecalis LEP Br; type: functional
[3] = test system: Staphylococcus aureus; test: In vitro antibacterial activity against Staphylococcus aureus CPX-R OBT 687; type: functional
[4] = test system: Escherichia coli; test: In vitro antibacterial activity against Escherichia coli ATCC 25922; type: functional
[5] = test system: Proteus mirabilis; test: In vitro antibacterial activity against Proteus mirabilis OBT 505; type: functional
[6] = test system: Proteus vulgaris; test: In vitro antibacterial activity against Proteus vulgaris CNUR 6; type: functional
[7] = test system: Staphylococcus aureus; test: In vitro antibacterial activity against Staphylococcus aureus M-R POMM 6214; type: functional
[8] = test system: Staphylococcus aureus; test: In vitro antibacterial activity against Staphylococcus aureus ATCC 29213; type: functional
[9] = test system: Streptococcus pneumoniae; test: In vitro antibacterial activity against Streptococcus pneumoniae I 0.43; type: functional
[10] = test system: Streptococcus pyogenes; test: In vitro antibacterial activity against Streptococcus pyogenes OMNFI BI; type: functional
[11] = test system: Klebsiella pneumoniae; test: In vitro antibacterial activity against Klebsiella pneumoniae ATCC 10031; type: functional
[12] = test system: Escherichia coli; test: In vitro antibacterial activity against Escherichia coli 120; type: functional
[13] = test system: Pseudomonas aeruginosa; test: In vitro antibacterial activity against Pseudomonas aeruginosa OBT 307; type: functional
[14] = test system: Enterococcus faecalis; test: In vitro antibacterial activity against Enterococcus faecalis UCMC 39690; type: functional
[15] = test system: Staphylococcus aureus; test: In vitro antibacterial activity against Staphylococcus aureus MPR 5; type: functional
[16] = test system: Escherichia coli; test: In vitro antibacterial activity against Escherichia coliCPX-R OBT 431; type: functional
[17] = test system: Haemophilus influenzae; test: In vitro antibacterial activity against Haemophilus influenzae; type: functional
[18] = test system: Pseudomonas aeruginosa; test: In vitro antibacterial activity against Pseudomonas aeruginosa […] 9027; type: functional
[19] = Mean MIC against gram positive; type: functional
[20] = molecular target: DNA gyrase (Escherichia coli, UniProt P0AES4+P0AES6); test: Inhibitory effect against Escherichia coli Gyrase in Supercoiling assay; type: protein-complex assay
[21] = Mean MIC against gram negative; type: functional

MIC [1] [µg/mL] | MIC [2] [µg/mL] | MIC [3] [µg/mL] | MIC [4] [µg/mL] | MIC [5] [µg/mL] | MIC [6] [µg/mL] | MIC [7] [µg/mL] | MIC [8] [µg/mL] | MIC [9] [µg/mL] | MIC [10] [µg/mL] | MIC [11] [µg/mL] | MIC [12] [µg/mL] | MIC [13] [µg/mL] | MIC [14] [µg/mL] | MIC [15] [µg/mL] | MIC [16] [µg/mL] | MIC [17] [µg/mL] | MIC [18] [µg/mL] | MIC [19] [µg/mL] | IC50 [20] [µM] | Structure (SMILES) | other results
0.25 (≈ 0.732 µM) | 2 (≈ 5.86 µM) | 8 (≈ 23.4 µM) | 0.06 (≈ 0.176 µM) | 2 (≈ 5.86 µM) | 8 (≈ 23.4 µM) | 0.5 (≈ 1.46 µM) | 0.25 (≈ 0.732 µM) | 2 (≈ 5.86 µM) | 2 (≈ 5.86 µM) | < 0.016 | 0.06 (≈ 0.176 µM) | 16 (≈ 46.9 µM) | 1 (≈ 2.93 µM) | 0.25 (≈ 0.732 µM) | > 16 | 0.06 (≈ 0.176 µM) | 2 (≈ 5.86 µM) | 1.09 (≈ 3.19 µM) | 83.5 | Cc1c(N2CCN(C)CC2)ccc2c(=O)c(C(=O)O)cn(C3CC3)c12 | Mean MIC [19]: 0.609 µg/mL
0.125 (≈ 0.348 µM) | 0.25 (≈ 0.696 µM) | 2 (≈ 5.56 µM) | < 0.016 | 0.5 (≈ 1.39 µM) | 0.5 (≈ 1.39 µM) | 0.125 (≈ 0.348 µM) | 0.125 (≈ 0.348 µM) | 1 (≈ 2.78 µM) | 0.25 (≈ 0.696 µM) | < 0.016 | < 0.016 | 0.2 (≈ 0.556 µM) | 0.271 (≈ 0.754 µM) | 0.06 (≈ 0.167 µM) | 4 (≈ 11.1 µM) | < 0.016 | 0.5 (≈ 1.39 µM) | 0.271 (≈ 0.754 µM) | 16.4 | Cc1c(N2CCN(C)CC2)c(F)cc2c(=O)c(C(=O)O)cn(C3CC3)c12 | MIC [21]: 0.155 µg/mL (≈ 0.431 µM)
0.5 (≈ 1.4 µM) | 0.5 (≈ 1.4 µM) | 1 (≈ 2.81 µM) | 0.125 (≈ 0.351 µM) | 4 (≈ 11.2 µM) | 8 (≈ 22.4 µM) | < 0.016 | < 0.016 | 0.5 (≈ 1.4 µM) | 0.5 (≈ 1.4 µM) | 0.06 (≈ 0.168 µM) | 0.25 (≈ 0.701 µM) | 16 (≈ 44.9 µM) | 0.25 (≈ 0.701 µM) | < 0.016 | 16 (≈ 44.9 µM) | < 0.016 | 4 (≈ 11.2 µM) | – | – | Cc1c(N2CCCC(CO)C2)ccc2c(=O)c(C(=O)O)cn(C3CC3)c12 (stereo unspecified) | –
< 0.016 | 0.5 (≈ 1.45 µM) | 16 (≈ 46.3 µM) | < 0.016 | 0.25 (≈ 0.724 µM) | 0.5 (≈ 1.45 µM) | 1 (≈ 2.9 µM) | 0.125 (≈ 0.362 µM) | 0.5 (≈ 1.45 µM) | 2 (≈ 5.79 µM) | < 0.016 | < 0.016 | 0.25 (≈ 0.724 µM) | 0.25 (≈ 0.724 µM) | 0.125 (≈ 0.362 µM) | > 16 | < 0.016 | 0.5 (≈ 1.45 µM) | 0.648 (≈ 1.88 µM) | 4.34 | CN1CCN(c2cc3c(cc2F)c(=O)c(C(=O)O)cn3C2CC2)CC1 | MIC [21]: 0.11 µg/mL (≈ 0.318 µM)

Second part, the compound before the results:

Structure (SMILES) | MIC [1] [µg/mL] | MIC [2] [µg/mL] | MIC [3] [µg/mL] | MIC [4] [µg/mL] | MIC [5] [µg/mL] | MIC [6] [µg/mL] | MIC [7] [µg/mL] | MIC [8] [µg/mL] | MIC [9] [µg/mL] | MIC [10] [µg/mL] | MIC [11] [µg/mL] | MIC [12] [µg/mL] | MIC [13] [µg/mL] | MIC [14] [µg/mL] | MIC [15] [µg/mL] | MIC [16] [µg/mL] | MIC [17] [µg/mL] | MIC [18] [µg/mL] | MIC [19] [µg/mL] | IC50 [20] [µM] | other results
CC(=O)O.Cc1c(N2CC[C@@H](N)C2)ccc2c(=O)c(C(=O)O)cn(C3CC3)c12 | 0.25 | 0.5 | 4 | 0.03 | 0.06 | 2 | 0.25 | 0.125 | 0.25 | 0.25 | 0.016 | 0.016 | 0.5 | 0.25 | 0.125 | 16 | 0.6 | 0.125 | – | – | –
Cc1c(N2CCC(N)C2)ccc2c(=O)c(C(=O)O)cn(C3CC3)c12 (stereo unspecified) | < 0.016 | 1 (≈ 3.05 µM) | 4 (≈ 12.2 µM) | < 0.016 | 0.5 (≈ 1.53 µM) | 1 (≈ 3.05 µM) | 0.25 (≈ 0.764 µM) | 0.125 (≈ 0.382 µM) | 0.06 (≈ 0.183 µM) | 1 (≈ 3.05 µM) | < 0.016 | < 0.016 | 1 (≈ 3.05 µM) | 0.5 (≈ 1.53 µM) | 0.125 (≈ 0.382 µM) | 16 (≈ 48.9 µM) | < 0.016 | 0.125 (≈ 0.382 µM) | – | – | –
Cc1c(N2CC(C)CC(C)C2)ccc2c(=O)c(C(=O)O)cn(C3CC3)c12 (stereo unspecified) | 4 (≈ 11.3 µM) | 1 (≈ 2.82 µM) | 4 (≈ 11.3 µM) | 1 (≈ 2.82 µM) | 16 (≈ 45.1 µM) | > 16 | < 0.016 | < 0.016 | 0.5 (≈ 1.41 µM) | 2 (≈ 5.64 µM) | 0.5 (≈ 1.41 µM) | 1 (≈ 2.82 µM) | > 16 | 1 (≈ 2.82 µM) | < 0.016 | > 16 | 0.25 (≈ 0.705 µM) | 8 (≈ 22.6 µM) | – | – | –
Cc1c(N2CCNCC2)ccc2c(=O)c(C(=O)O)cn(C3CC3)c12.Cl | 0.26 | 2 | 16 | 0.03 | 0.25 | 2 | 0.5 | 0.5 | 2 | 2 | < 0.016 | 0.03 | 2 | 2 | 0.25 | > 16 | 0.03 | 0.125 | – | – | –
O=C(O)c1cn(C2CC2)c2cc(N3CCNCC3)c(F)cc2c1=O [CIPROFLOXACIN] | – | 1 (≈ 3.02 µM) | > 16 | < 0.016 | 0.06 (≈ 0.181 µM) | 0.5 (≈ 1.51 µM) | 1 (≈ 3.02 µM) | 0.5 (≈ 1.51 µM) | 1 (≈ 3.02 µM) | 0.5 (≈ 1.51 µM) | < 0.016 | < 0.016 | 1 (≈ 3.02 µM) | 0.5 (≈ 1.51 µM) | 0.25 (≈ 0.754 µM) | – | < 0.016 | 0.06 (≈ 0.181 µM) | 0.917 (≈ 2.77 µM) | – | MIC [21]: 0.083 µg/mL (≈ 0.25 µM)
